What is called IC50 is the midpoint of a concentration-inhibition curve. Low values mean inhibition by little substance, high ones a need for much substance. The term EC50 denotes the midpoint of the concentration-response curve. A lower EC50 goes with higher potency in that assay.

These results are taken from patent US20250129070A1, “BIFUNCTIONAL ANDROGEN RECEPTOR COMPOUNDS” (priority 2023, published 2025).

In one assay the test system is VCaP cells. Put plainly: VCaP growth inhibition assay. Format: cell-based. The following applies: 30 pM R1881, 9 days, CTG. In short, it runs like this:
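VCaP cells in phenol red-free DMEM/5% CSS, pre-incubated 72 h, then stimulated with R1881 (final 30 pM) and treated with 1:5 serial dilutions (final 100 nM to 10 fM) for 9 days at 37 °C. Viability by CellTiter-Glo luminescence; IC50 from 4-parameter logistic fit of RLU vs concentration.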

For the next assay, the system named is AR / CBP ternary complex. Put plainly: Ternary complex formation assay (sandwich ELISA, AR capture / CBP detection) in VCaP cell lysates. Format: cell-based. The following applies: 1.5 hours treatment, sandwich ELISA (AR capture, CBP or p300 detection). In short, it runs like this:
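VCaP cells (50K/well, 5% charcoal-stripped FBS, ≥3 days) treated with bifunctional compound for 1.5 h, then lysed 30 min at 4 °C. AR captured on anti-AR (AR 441) plates; bound CBP or p300 detected by rabbit mAb plus HRP secondary. QuantaRed chemifluorescence read at ex 570/em 585, immediately and at 5 and 15 min.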
Background: An ELISA detects its analyte on a solid surface through an enzyme-linked reagent.

Turning to `CC(=O)N1CCc2c(c(N3CCCc4cc(-c5cnn(C)c5)c(C(F)F)cc43)nn2C2CN(C3CCN(c4ncc(C(=O)NC5C(C)(C)C(Oc6ccc(C#N)c(Cl)c6)C5(C)C)cn4)CC3)C2)C1` (stereo not drawn) [Compound 11, 2-[4-[3-[5-acetyl-3-[7-(difluoromethyl)-6-(1-methylpyrazol-4-yl)-3,4-dihydro-2H-quinolin-1-yl]-6,7-dihydro-4H-pyrazolo[4,3-c]pyridin-1-yl]azetidin-1-yl]-1-piperidyl]-N-[3-(3-chloro-4-cyano-phenoxy)-2,2,4,4-tetramethyl-cyclobutyl]pyrimidine-5-carboxamide], in the assay on VCaP cells, the IC50 lay in the range of 0.1 to 1 nM. Moreover, in the assay with AR / CBP ternary complex, the EC50 is 10 to 100 nM.

Molecule `CC(=O)N1CCc2c(c(N3CCCc4cc(-c5cnn(C)c5)c(C(F)F)cc43)nn2C2CCC(OC3CN(c4ncc(C(=O)NC5C(C)(C)C(Oc6ccc(C#N)c(Cl)c6)C5(C)C)cn4)C3)CC2)C1` (stereo not drawn) [Compound 341] returned an IC50 in the assay with VCaP cells of 0.1 to 1 nM. In the assay on AR / CBP ternary complex, the EC50 is under 1 nM.

`CC(=O)N1CCc2c(c(N3CCCc4cc(-c5cnn(C)c5)c(C(F)F)cc43)nn2C2CCN([C@H]3CCCN(c4ncc(C(=O)NC5C(C)(C)C(Oc6ccc(C#N)c(Cl)c6)C5(C)C)cn4)C3)CC2)C1` (stereo partly drawn) [Compound 397, 2-[(3S)-3-[4-[5-acetyl-3-[7-(difluoromethyl)-6-(1-methylpyrazol-4-yl)-3,4-dihydro-2H-quinolin-1-yl]-6,7-dihydro-4H-pyrazolo[4,3-c]pyridin-1-yl]-1-piperidyl]-1-piperidyl]-N-[3-(3-chloro-4-cyano-phenoxy)-2,2,4,4-tetramethyl-cyclobutyl]pyrimidine-5-carboxamide]: in the assay with VCaP cells, the IC50 is over 100 nM. Also, the EC50 in the assay on AR / CBP ternary complex was 1 to 10 nM.

On to `COc1cc(OC2C(C)(C)C(NC(=O)c3ccc(N4CCC(C5CN(c6ccc(-c7cc8cccc(-c9nn(C%10CCOCC%10)c%10c9CN(C(C)=O)CC%10)c8cn7)cn6)C5)CC4)cc3)C2(C)C)ccc1C#N` (stereo not drawn) [Compound 268, 4-[4-[1-[5-[8-(5-acetyl-1-tetrahydropyran-4-yl-6,7-dihydro-4H-pyrazolo[4,3-c]pyridin-3-yl)-3-isoquinolyl]-2-pyridyl]azetidin-3-yl]-1-piperidyl]-N-[3-(4-cyano-3-methoxy-phenoxy)-2,2,4,4-tetramethyl-cyclobutyl]benzamide], for which the IC50 with VCaP cells lay in the range of 0.1 to 1 nM. The same molecule registered an EC50 in the assay on AR / CBP ternary complex of under 1 nM.

The molecule `Cn1cc(-c2cc3cccc(-c4cc(C5CCN(CC6CCN(c7ncc(C(=O)NC8C(C)(C)C(Oc9ccc(C#N)c(Cl)c9)C8(C)C)cn7)CC6)CC5)c5c(c4)n(C)c(=O)n5C)c3cn2)cn1` (stereo not drawn) [Compound 213, N-[3-(3-chloro-4-cyano-phenoxy)-2,2,4,4-tetramethyl-cyclobutyl]-2-[4-[[4-[1,3-dimethyl-6-[3-(1-methylpyrazol-4-yl)-8-isoquinolyl]-2-oxo-benzimidazol-4-yl]-1-piperidyl]methyl]-1-piperidyl]pyrimidine-5-carboxamide] came in with an IC50 in the assay on VCaP cells of 0.1 to 1 nM. In the assay on AR / CBP ternary complex, this molecule displayed an EC50 of over 100 nM.

`CC(=O)N1CCc2c(c(N3CCCc4cc(-c5cnn(C)c5)c(C(F)F)cc43)nn2C2CCC(C3CCC4(CC3)CN(c3ncc(C(=O)NC5C(C)(C)C(Oc6ccc(C#N)c(Cl)c6)C5(C)C)cn3)C4)CC2)C1` (stereo not drawn) [Compound 377, 2-[7-[4-[5-acetyl-3-[7-(difluoromethyl)-6-(1-methylpyrazol-4-yl)-3,4-dihydro-2H-quinolin-1-yl]-6,7-dihydro-4H-pyrazolo[4,3-c]pyridin-1-yl]cyclohexyl]-2-azaspiro[3.5]nonan-2-yl]-N-[3-(3-chloro-4-cyano-phenoxy)-2,2,4,4-tetramethyl-cyclobutyl]pyrimidine-5-carboxamide]: the IC50 with VCaP cells lay in the range of 1 to 100 nM. The molecule also showed a 50% effective concentration (EC50) with AR / CBP ternary complex of 1 to 10 nM.

`CC(=O)N1CCc2c(c(Nc3ccc(-c4cnn(C)c4)cc3F)nn2CCOCCN2CCN(c3ncc(C(=O)NC4C(C)(C)C(Oc5ccc(C#N)c(Cl)c5)C4(C)C)cn3)CC2)C1` (stereo not drawn) [Compound 1, 2-[4-[2-[2-[5-acetyl-3-[2-fluoro-4-(1-methylpyrazol-4-yl)anilino]-6,7-dihydro-4H-pyrazolo[4,3-c]pyridin-1-yl]ethoxy]ethyl]piperazin-1-yl]-N-[3-(3-chloro-4-cyano-phenoxy)-2,2,4,4-tetramethyl-cyclobutyl]pyrimidine-5-carboxamide]: the IC50 in the assay on VCaP cells fell in the range of 0.1 to 1 nM. This molecule had an EC50 in the assay on AR / CBP ternary complex of under 1 nM.

`CC(=O)N1CCc2c(c(N3CCCc4cc(-c5cnn(C)c5)c(C(F)F)cc43)nn2C2CCN(C3CC4(CCC(Oc5ncc(C(=O)NC6C(C)(C)C(Oc7ccc(C#N)c(Cl)c7)C6(C)C)cn5)CC4)C3)CC2)C1` (stereo not drawn) [Compound 395, 2-[2-[4-[5-acetyl-3-[7-(difluoromethyl)-6-(1-methylpyrazol-4-yl)-3,4-dihydro-2H-quinolin-1-yl]-6,7-dihydro-4H-pyrazolo[4,3-c]pyridin-1-yl]-1-piperidyl]spiro[3.5]nonan-7-yl]oxy-N-[3-(3-chloro-4-cyano-phenoxy)-2,2,4,4-tetramethyl-cyclobutyl]pyrimidine-5-carboxamide] displayed an IC50 in the assay on VCaP cells of 0.1 to 1 nM. In the assay with AR / CBP ternary complex, this molecule registered an EC50 of under 1 nM.

`COc1cc(OC2C(C)(C)C(NC(=O)c3ccc(N4CC[C@@H](N5CCC(n6nc(N7CCCc8cc(-c9cnn(C)c9)c(C(F)F)cc87)c7c6CCN(C(C)=O)C7)CC5)C4)cc3)C2(C)C)ccc1C#N` (stereo partly drawn) [Compound 337, 4-[(3R)-3-[4-[5-acetyl-3-[7-(difluoromethyl)-6-(1-methylpyrazol-4-yl)-3,4-dihydro-2H-quinolin-1-yl]-6,7-dihydro-4H-pyrazolo[4,3-c]pyridin-1-yl]-1-piperidyl]pyrrolidin-1-yl]-N-[3-(4-cyano-3-methoxy-phenoxy)-2,2,4,4-tetramethyl-cyclobutyl]benzamide]: the IC50 in the assay on VCaP cells is 0.1 to 1 nM. In addition, the EC50 in the assay with AR / CBP ternary complex was under 1 nM.

`CC(=O)N1CCc2c(c(N3CCCc4cc(-c5cnn(C)c5)c(C)cc43)nn2C2CCN(CC3C(C)CN(c4ncc(C(=O)NC5C(C)(C)C(Oc6ccc(C#N)c(Cl)c6)C5(C)C)cn4)CC3C)CC2)C1` (stereo not drawn) [Compound 444, 2-[4-[[4-[5-acetyl-3-[7-methyl-6-(1-methylpyrazol-4-yl)-3,4-dihydro-2H-quinolin-1-yl]-6,7-dihydro-4H-pyrazolo[4,3-c]pyridin-1-yl]-1-piperidyl]methyl]-3,5-dimethyl-1-piperidyl]-N-[3-(3-chloro-4-cyano-phenoxy)-2,2,4,4-tetramethyl-cyclobutyl]pyrimidine-5-carboxamide] came in with an IC50 in the assay on VCaP cells of 0.1 to 1 nM. For the same molecule, in the assay with AR / CBP ternary complex, the EC50 was under 1 nM.

In turn, `CC(=O)N1CCc2c(c(N3CCCc4cc(-c5cnn(C)c5)c(C(F)F)cc43)nn2C2CCN(CC#CCCc3ncc(C(=O)NC4C(C)(C)C(Oc5ccc(C#N)c(Cl)c5)C4(C)C)cn3)CC2)C1` (stereo not drawn) [Compound 18, 2-[5-[4-[5-acetyl-3-[7-(difluoromethyl)-6-(1-methylpyrazol-4-yl)-3,4-dihydro-2H-quinolin-1-yl]-6,7-dihydro-4H-pyrazolo[4,3-c]pyridin-1-yl]-1-piperidyl]pent-3-ynyl]-N-[3-(3-chloro-4-cyano-phenoxy)-2,2,4,4-tetramethyl-cyclobutyl]pyrimidine-5-carboxamide] came in with an IC50 in the assay with VCaP cells of 0.1 to 1 nM. The EC50 in the assay with AR / CBP ternary complex is under 1 nM.

`C[C@@H]1CC(=O)Nc2cccc(-c3ccc4c(c3)c(-c3cnn(C)c3)nn4CCCN(C)c3ncc(C(=O)NC4C(C)(C)C(Oc5ccc(C#N)c(Cl)c5)C4(C)C)cn3)c2N1` (stereo partly drawn) [Compound 50, N-[3-(3-chloro-4-cyano-phenoxy)-2,2,4,4-tetramethyl-cyclobutyl]-2-[methyl-[3-[5-[(4R)-4-methyl-2-oxo-1,3,4,5-tetrahydro-1,5-benzodiazepin-6-yl]-3-(1-methylpyrazol-4-yl)indazol-1-yl]propyl]amino]pyrimidine-5-carboxamide] displayed an IC50 with VCaP cells of 0.1 to 1 nM. The concentration giving a half-maximal response (EC50) with AR / CBP ternary complex is under 1 nM.

With `COc1cc(OC2C(C)(C)C(NC(=O)c3ccc(N4CCC(CN5CCC(n6nc(N7CCCc8cc(-c9cnn(C)c9)c(C)cc87)c7c6CCN(C(C)=O)C7)CC5)C(C)(C)C4)cc3)C2(C)C)ccc1C#N` (stereo not drawn) [Compound 447, 4-[4-[[4-[5-acetyl-3-[7-methyl-6-(1-methylpyrazol-4-yl)-3,4-dihydro-2H-quinolin-1-yl]-6,7-dihydro-4H-pyrazolo[4,3-c]pyridin-1-yl]-1-piperidyl]methyl]-3,3-dimethyl-1-piperidyl]-N-[3-(4-cyano-3-methoxy-phenoxy)-2,2,4,4-tetramethyl-cyclobutyl]benzamide], the IC50 with VCaP cells was in the range of 0.1 to 1 nM. In the assay with AR / CBP ternary complex, this molecule registered a 50% effective concentration (EC50) of under 1 nM.

On to `COc1cc(OC2C(C)(C)C(NC(=O)c3ccc(N4CCC(CN5CCC(n6nc(-c7cccc8cc(-c9cnn(C)c9)ncc78)c7c6CCN(C(C)=O)C7)CC5)CC4)cc3)C2(C)C)ccc1C#N` (stereo not drawn) [Compound 253, 4-[4-[[4-[5-acetyl-3-[3-(1-methylpyrazol-4-yl)-8-isoquinolyl]-6,7-dihydro-4H-pyrazolo[4,3-c]pyridin-1-yl]-1-piperidyl]methyl]-1-piperidyl]-N-[3-(4-cyano-3-methoxy-phenoxy)-2,2,4,4-tetramethyl-cyclobutyl]benzamide], for which the IC50 with VCaP cells is at most 0.1 nM. In addition, in the assay with AR / CBP ternary complex, the EC50 was under 1 nM.

Molecule `COc1cc(OC2C(C)(C)C(NC(=O)c3ccc(N4CCC(C5CCN(c6ccc(-c7cc8cccc(-c9nn(C%10CCOCC%10)c%10c9CN(C(C)=O)CC%10)c8cn7)cn6)CC5)CC4)cc3)C2(C)C)ccc1C#N` (stereo not drawn) [Compound 267, 4-[4-[1-[5-[8-(5-acetyl-1-tetrahydropyran-4-yl-6,7-dihydro-4H-pyrazolo[4,3-c]pyridin-3-yl)-3-isoquinolyl]-2-pyridyl]-4-piperidyl]-1-piperidyl]-N-[3-(4-cyano-3-methoxy-phenoxy)-2,2,4,4-tetramethyl-cyclobutyl]benzamide] returned an IC50 in the assay on VCaP cells of 1 to 100 nM. The same molecule displayed an EC50 with AR / CBP ternary complex of 1 to 10 nM.
